The subject of the assay is SARS-CoV-2 ancestral Wuhan strain (OMC-510) / VeroE6/TMPRSS2 cells. The settings on record: plaque reduction assay. On the technique in general: Plaques are areas of infected cells; plaque reduction assays count them against a control.

On to `CC[C@H](C)[C@H](NC(C)=O)C(=O)N[C@@H](CO)C(=O)NCC(=O)N[C@H](C(=O)N[C@@H](CC(N)=O)C(=O)N[C@@H](C)C(=O)N[C@@H](CO)C(=O)N[C@H](C(=O)N[C@H](C(=O)N[C@@H](CC(N)=O)C(=O)N[C@H](C(=O)N[C@@H](CCC(N)=O)C(=O)N[C@@H](CCC(=O)O)C(=O)N[C@@H](CCC(=O)O)C(=O)N[C@H](C(=O)N[C@@H](CCCCN)C(=O)N[C@@H](CCCNC(=N)N)C(=O)N[C@@H](CC(C)C)C(=O)N[C@@H](CC(N)=O)C(=O)N[C@@H](CCC(=O)O)C(=O)N[C@H](C(=O)N[C@@H](C)C(=O)N[C@@H](CCCCN)C(=O)N[C@@H](CCCCN)C(=O)N[C@@H](CC(C)C)C(=O)N[C@@H](CC(N)=O)C(=O)N[C@@H](CCC(=O)O)C(=O)N[C@@H](CO)C(=O)N[C@@H](CC(C)C)C(=O)N[C@H](C(=O)N[C@@H](CC(=O)O)C(=O)N[C@@H](CC(C)C)C(=O)N[C@@H](CCC(N)=O)C(=O)N[C@@H](CCC(=O)O)C(N)=O)[C@@H](C)CC)C(C)C)[C@@H](C)CC)[C@@H](C)CC)C(C)C)C(C)C)[C@@H](C)CC` [Peptide 3a], for which the “times higher antiviral activity than peptide 1a” value is around 4 times and the “times higher antiviral activity than peptide 2a” value is recorded as “approximately 10 times”.

The values above are taken from publication PMC10026625 (RSC Advances, 2023).
